According to patent EP1982595A1, “Insecticidal derivatives of substituted aminoheterocycles” (Bayer CropScience AG, priority 2007, dated 2008):
Read-outs that look alike come from different tables or passages of the source.

Experiments:
[1] = logP (acidic) / lgP (HCOOH), phys. data; type: physicochemical; details: for logP: acidic; for lgP (HCOOH): preparation examples, b176 prints logP (HCOOH)
[2] = system: Myzus persicae; experiment: Myzus persicae - test (spray application); type: in vivo; details: read-out: activity (mortality in %)
Procedure: Myzus persicae - test; (spray application)
(§1) To produce a suitable preparation of active compound, 1 part by weight of active compound is mixed with the stated amount of solvent and emulsifier, and the concentrate is diluted with emulsifier-containing water to the desired concentration.
Chinese cabbage (Brassica pekinesis) leaf-disks infected with all instars of the green peach aphid (Myzus persicae), are sprayed with a preparation of the active ingredient at the desired concentration.
After the specified period of time, mortality in % is determined, 100% means that all aphids have been killed; 0% means that none of the aphids have been killed, […]

[3] = system: Phaedon cochleariae; experiment: Phaedon cochleariae - test (spray application); type: in vivo; details: application rate of 500 g/ha, Chinese cabbage leaf-disks, mustard beetle larvae
Procedure: Phaedon cochlearlae - test (spray application)
To produce a suitable preparation of active compound, I part by weight of active compound is mixed with the stated amount of solvent and emulsifier, and the concentrate is diluted with emulsifier-containing water to the desired concentration.
Chinese cabbage (Brassica pekinesis) leaf-disks are treated by being sprayed with the preparation of the active compound of the desired concentration and are, after drying, infested with mustard beetle larvae (Phaedon cochleariae).
After the specified period of time, mortality in % is determined, 100 % means that all the beetle larvae have been killed; 0 % means that none of the beetle larvae have been killed.

[4] = system: Tetranychus urticae; experiment: Tetranychus urticae - test; OP-resistant (spray application); type: in vivo; details: application rate of 100 g/ha, French bean, all stages
Procedure: Tetranychus urticae - test; OP-resistant (spray application)
as §1
French bean (Phaseolus vulgaris) which are heavily infested with all stages of the two spotted spidermite (Tetranychus urticae), are sprayed with a preparation of the active ingredient at the desired concentration.
After the specified period of time, mortality in % is determined, 100% means that all spider mites have been killed and 0% means that none of the spider mites have been killed.

[5] = Table I-1, read-out: Phys. data = logP (acidic)
[6] = application rate of 500 g/ha, spray application, Chinese cabbage leaf-disks, all instars of the green peach aphid

Row | Compound | logP [1, 5] | mortality at 500 g/ha [2, 6] [%] | also measured
1 | CC(NC(=S)N1CCOC1=N[C@H]1CCc2ccccc21)c1ccccc1 (some centres unmarked) [1-29] | 4.85 |  | 
2 | S=C(NCc1cccc(Cl)c1)N1CCOC1=N[C@H]1CCc2ccccc21 [1-20] | 4.97 | ≥ 80 | 
3 | S=C(NCc1ccccc1)N1CCOC1=N[C@H]1CCCc2ccccc21 [3-2, N-benzyl-2-[(1S)-1,2,3,4-tetrahydronaphthaline-1-ylimino]-1,3-oxazolidine-3-carbothioamide] |  |  | mortality at 500 g/ha ([2]; in Brassica rapa): ≥ 80%; Phys. data ([1]; Table I-3, logP (HCOOH), i.e. acidic conditions): 4.67; lgP (HCOOH) [1]: 4.67
4 | S=C(NCc1ncccn1)N1CCOC1=N[C@H]1CCc2ccccc21 [1-71] | 2.92 |  | 
5 | S=C(NCc1ccc(Cl)nc1)N1CCOC1=N[C@H]1CCc2ccccc21 [1-40] | 4.04 |  | 
6 | S=C(NCCc1cccc(Cl)c1)N1CCOC1=N[C@H]1CCc2ccccc21 [1-39] | 5.19 | ≥ 80 | mortality at 500 g/ha [3]: ≥ 80%
7 | CC(NC(=S)N1CCOC1=N[C@H]1CCc2ccccc21)c1ccccc1Cl (some centres unmarked) [1-32] | 5.31 | ≥ 80 | 
8 | S=C(NCc1ccccc1)N1CCOC1=NC1CCc2ccccc21 (centres unmarked) [1-1] | 4.46 | ≥ 80 | 
9 | CC(C)=CCNC(=S)N1CCOC1=N[C@H]1CCc2ccccc21 [1-72] | 4.78 |  | 
10 | C=CCNC(=S)N1CCOC1=NC1CCc2ccccc21 (centres unmarked) [1-47] | 3.85 | ≥ 80 | 
11 | S=C(NCc1ccc(Cl)cc1)N1CCOC1=N[C@H]1CCc2ccccc21 [1-19] | 5.02 | ≥ 80 | 
12 | Cc1ccc(CNC(=S)N2CCOC2=N[C@H]2CCc3ccccc32)cc1 [1-23] | 4.91 | ≥ 80 | 
13 | CC(NC(=S)N1CCSC1=NC1CCc2c(F)cccc21)c1ccccc1 (centres unmarked) [2-31, 2-[aza(4-fluorindanyl)-methylene](1,3-thiazolidine-3-yl)(alphamethylbenzylamino)methane-1-thione] |  |  | Phys. data ([1]; Table I-2, key logP (acidic) is printed only in the head of Table I-1): 5.47; logP ([1]; preparation example 3, text, read-out: logP (acidic)): 5.47
14 | COc1ccc(CNC(=S)N2CCOC2=N[C@H]2CCc3ccccc32)cc1 [1-25] | 4.28 | ≥ 80 | 
15 | CC(NC(=S)N1CCOC1=N[C@H]1CCc2ccccc21)c1ccc(Cl)cc1 (some centres unmarked) [1-34] | 5.64 | ≥ 80 | 
16 | S=C(NCCc1ccc(Cl)cc1)N1CCOC1=N[C@H]1CCc2ccccc21 [1-38] | 5.25 | ≥ 80 | 
17 | S=C(NCc1ccccc1Cl)N1CCOC1=N[C@H]1CCc2ccccc21 [1-21] | 4.97 | ≥ 80 | 
18 | CC(NC(=S)N1CCOC1=NC1CCc2ccccc21)c1ccc(F)cc1 (centres unmarked) [1-36] | 4.91 | ≥ 80 | 
19 | CC(NC(=S)N1CCOC1=N[C@H]1CCc2ccccc21)c1cccc(Cl)c1 (some centres unmarked) [1-35] | 5.31 | ≥ 80 | mortality at 500 g/ha [3]: ≥ 80%
20 | S=C(NCc1ccc(Cl)cc1Cl)N1CCOC1=N[C@H]1CCc2ccccc21 [1-27] | 5.65 | ≥ 80 | mortality at 500 g/ha [3]: ≥ 80%
21 | S=C(NCc1ccc2c(c1)OCO2)N1CCOC1=N[C@H]1CCc2ccccc21 [1-22] | 4.11 | ≥ 80 | mortality at 500 g/ha [3]: ≥ 80%
22 | COc1ccc(CNC(=S)N2CCOC2=N[C@H]2CCc3ccccc32)cc1OC [1-26] | 3.8 | ≥ 80 | 
23 | Fc1ccc(CNC(=S)N2CCOC2=N[C@H]2CCc3ccccc32)cc1 [1-24] | 4.51 | ≥ 80 | 
24 | S=C(NCc1ccccc1)N1CCOC1=N[C@H]1CCc2ccccc21 [1-2, N-benzyl-2-[(1S)-2,3-dihydro-1H-inden-1-ylimino]-1,3-oxazolidiner3-carbothioamide] | 4.46 | ≥ 80 | mortality at 100 g/ha [4]: ≥ 80%; lgP (HCOOH) [1]: 4.46
25 | S=C(NCc1ccco1)N1CCOC1=N[C@H]1CCc2ccccc21 [1-45] | 4.17 |  | 
26 | C=CCNC(=O)N1CCOC1=NC1CCc2ccccc21 (centres unmarked) [1-48] | 3.85 |  | 
27 | S=C(NCc1ccncc1)N1CCOC1=N[C@H]1CCc2ccccc21 [1-43] | 1.87 |  | 
28 | S=C(NCc1cccnc1)N1CCOC1=N[C@H]1CCc2ccccc21 [1-44] | 2.17 | ≥ 80 | 
